SMILES strings stand for the structures.

Experiment [1] deals with T1, Ba/F3 cells TPM3-TRKA (Homo sapiens, UniProt P04629).
T1 construct: host or cells: Ba/F3 (RIKEN), retroviral pMSCV-puro; the other entry of the earlier key: TPM3 (P06753, Tropomyosin alpha-3 chain)
Briefly: Ba/F3 cell proliferation assay, TPM3-TRKA. The class given is cell-based. To be noted: 72 hours, CellTiter-Glo, read-out: TPM3-NTRK1-wt IC50. In short, it runs like this: (§1)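 Ba/F3 lines stably expressing the fusion (retroviral pMSCV-puro, selected by IL-3 withdrawal plus puromycin 0.8 μg/mL, monoclonal) were seeded at 1,000 cells/well, dosed next day with 3-fold compound dilutions, and incubated 72 hours. CellTiter-Glo luminescence gave percent inhibition; IC50 by four-parameter logistic fit.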
On the technique in general: ATP-based viability assays read luminescence as a measure of living cells.

The target of experiment [2] is T2, ALK L1196M/G1202R (Homo sapiens, UniProt Q9UM73, G1202R/L1196M).
T2 construct: purchased SignalChem A19-12NG
T2 sequence (Q9UM73 1116-1392 L1196M/G1202R limits assumed): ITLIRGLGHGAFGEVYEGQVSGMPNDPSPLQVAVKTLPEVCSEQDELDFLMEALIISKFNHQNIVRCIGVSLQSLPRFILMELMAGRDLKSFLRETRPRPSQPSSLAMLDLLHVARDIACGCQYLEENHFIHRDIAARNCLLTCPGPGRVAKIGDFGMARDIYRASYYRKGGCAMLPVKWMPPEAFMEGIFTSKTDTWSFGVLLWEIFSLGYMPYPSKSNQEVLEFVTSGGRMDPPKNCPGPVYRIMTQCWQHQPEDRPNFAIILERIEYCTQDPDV
Briefly: Biochemical kinase assay, ALK L1196M/G1202R kinase domain. Particulars: apparent inhibitory constant, Morrison equation; ATP 2 mM in substrate solution; read-out: ALK-L1196M-G1202R Ki^app. The procedure: (§2) First, 250 nL of compound dissolved in DMSO (100-fold of the desired concentration) was dispensed into a 384-well plate. A 12.5 μL substrate solution containing ATP (2 mM) and fluorogenic phosphorylation substrate AQT0101 (26 μM for ALK and ROS1, AssayQuant) or AQT0104 (26 μM for TRKA, AssayQuant) in buffer (50 mM HEPES pH 7.5, 0.01% Brij-35, 0.5 mM EGTA, 10 mM MgCl2) was added and mixed thoroughly. Then, a 12.5 μL kinase solution containing ALK-wt (1.5 nM, Carna, 08-518), ALK ALK L1196M/G1202R (3 nM, SignalChem, A19-12NG), ROS1-wt (0.6 nM, Carna, 08-163), ROS1-G2032R (0.5 nM, SignalChem, R14-12BG), or TRKA-wt (1 nM, BPS Bio, 40280) kinase domains in buffer (50 nM HEPES pH 7.5, 0.01% Brij-35, 2% glycerol, 0.4 mg/mL BSA, 0.5 mM EGTA, and 10 mM MgCl2) was added and mixed thoroughly. The plate was sealed and read by SpectraMax Paradigm at λ=485 nm every 2 minutes for 120 minutes at 30° C. Initial rates of reaction (v) were calculated from the change in fluorescence intensity over time during the initial, linear portion of the reaction. Finally, apparent inhibitory constants (Ki^app) were determined from regression of v and I (inhibitor concentration) to Morrison Equation (E=enzyme concentration): […]

The target of experiment [3] is T3, Ba/F3 cells EML4-ALK L1196M/G1202R (variant 1) (Homo sapiens, UniProt Q9UM73, G1202R/L1196M).
T3 construct: echinoderm microtubule-associated protein-like 4 (EML4) gene and the ALK tyrosine kinase domain; host or cells: Ba/F3 (RIKEN), retroviral pMSCV-puro; the other entry of the earlier key: EML4 (Q9HC35, Echinoderm microtubule-associated protein-like 4)
T3 sequence (Q9UM73 with tags, fused parts or gaps L1196M/G1202R): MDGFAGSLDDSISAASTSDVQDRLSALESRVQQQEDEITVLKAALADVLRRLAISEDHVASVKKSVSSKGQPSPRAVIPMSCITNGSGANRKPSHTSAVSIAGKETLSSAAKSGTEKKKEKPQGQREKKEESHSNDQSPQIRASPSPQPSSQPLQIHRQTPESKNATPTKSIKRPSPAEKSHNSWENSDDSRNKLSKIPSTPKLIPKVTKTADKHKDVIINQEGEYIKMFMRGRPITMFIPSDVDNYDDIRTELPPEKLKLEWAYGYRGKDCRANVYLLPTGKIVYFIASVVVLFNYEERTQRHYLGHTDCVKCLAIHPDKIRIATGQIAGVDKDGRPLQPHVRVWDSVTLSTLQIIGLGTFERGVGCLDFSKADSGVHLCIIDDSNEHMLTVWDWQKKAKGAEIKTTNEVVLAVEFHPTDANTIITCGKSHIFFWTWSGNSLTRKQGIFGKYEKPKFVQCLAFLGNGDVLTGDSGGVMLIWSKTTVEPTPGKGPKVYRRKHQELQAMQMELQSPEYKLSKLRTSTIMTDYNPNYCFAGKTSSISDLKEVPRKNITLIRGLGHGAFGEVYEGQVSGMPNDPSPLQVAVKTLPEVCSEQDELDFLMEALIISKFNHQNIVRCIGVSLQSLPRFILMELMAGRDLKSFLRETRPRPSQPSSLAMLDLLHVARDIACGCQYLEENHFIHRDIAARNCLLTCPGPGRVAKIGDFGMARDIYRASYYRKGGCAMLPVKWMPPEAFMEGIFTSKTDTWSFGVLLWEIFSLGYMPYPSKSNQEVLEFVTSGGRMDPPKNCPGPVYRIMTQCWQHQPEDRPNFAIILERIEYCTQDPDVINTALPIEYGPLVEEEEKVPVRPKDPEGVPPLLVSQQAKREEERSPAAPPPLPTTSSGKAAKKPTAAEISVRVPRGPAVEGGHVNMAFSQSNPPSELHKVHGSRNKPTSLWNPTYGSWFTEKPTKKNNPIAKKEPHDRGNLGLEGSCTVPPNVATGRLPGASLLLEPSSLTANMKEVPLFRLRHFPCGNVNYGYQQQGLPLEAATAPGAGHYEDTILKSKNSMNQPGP
Briefly: Ba/F3 cell proliferation assay, EML4-ALK L1196M/G1202R (variant 1). The experiment is classed as cell-based. To be noted: 72 hours, CellTiter-Glo. In short, it runs like this:
as §1

For experiment [4], the target named is T4, TRKA-wt (Homo sapiens, UniProt P04629).
T4 construct: or TRKA-wt (1 nM, BPS Bio, 40280) kinase domains in buffer; purchased BPS Bio 40280
T4 sequence (P04629 510-781 limits assumed): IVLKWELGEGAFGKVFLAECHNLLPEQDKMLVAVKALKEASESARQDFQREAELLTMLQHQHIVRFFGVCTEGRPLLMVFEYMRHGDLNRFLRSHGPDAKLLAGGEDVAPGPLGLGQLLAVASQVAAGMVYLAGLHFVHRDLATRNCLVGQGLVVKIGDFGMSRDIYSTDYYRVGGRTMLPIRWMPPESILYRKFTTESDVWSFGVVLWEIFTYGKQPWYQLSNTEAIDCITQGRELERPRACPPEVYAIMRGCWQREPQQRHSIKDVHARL
In words: Biochemical kinase assay, TRKA-wt kinase domain. To be noted: apparent inhibitory constant, Morrison equation; ATP 2 mM in substrate solution; read-out: TRKA-wt Ki^app. The procedure: as §2

Experiment [5] concerns the target T5, ROS1-G2032R (Homo sapiens, UniProt P08922, G2032R).
T5 construct: purchased SignalChem R14-12BG
In words: Biochemical kinase assay, ROS1-G2032R kinase domain. Particulars: apparent inhibitory constant, Morrison equation; ATP 2 mM in substrate solution; read-out: ROS1-G2032R Ki^app. The procedure:
as §2, with “Then, a 12.5 μL kinase solution containing ALK-wt (1.5 nM, Carna, 08-518), ALK ALK L1196M/G1202R (3 nM, SignalChem, A19-12NG), ROS1-wt (0.6 nM, Carna, 08-163), ROS1-G2032R (0.5 nM, SignalChem, R14-12BG), or TRKA-wt (1 nM, BPS Bio, 40280) kinase domains in buffer (50 nM HEPES pH 7.5, 0.01% Brij-35, 2% glycerol, 0.4 mg/mL BSA, 0.5 mM EGTA, and 10 mM MgCl2) was added and mixed thoroughly.” left out

For experiment [6], the system named is TPM3-NTRK1-wt IC50 / primary target IC50 (e.g. CD74-ROS1-wt). Briefly: TRKA selectivity in Ba/F3 cells (TRKA potency divided by primary target potency). The experiment is classed as cell-based. To be noted: for TPM3-NTRK1-wt/CD74-ROS1-G2032R selectivity ratio: TRKA potency / CD74-ROS1-G2032R potency; for TPM3-NTRK1-wt/CD74-ROS1-wt selectivity ratio: TRKA potency / CD74-ROS1-wt potency; for TPM3-NTRK1-wt/EML4-ALK-L1196M-G1202R selectivity ratio: TRKA potency / EML4-ALK-L1196M-G1202R potency; for TPM3-NTRK1-wt/EML4-ALK-wt selectivity ratio: TRKA potency / EML4-ALK-wt potency. The procedure: TRKA selectivity was calculated by dividing a compound's TRKA potency by its primary target potency (e.g. TPM3-NTRK1-wt IC50/CD74-ROS1-wt IC50). Compound selectivity can be interpreted by binning ratio values: bin A for very high selectivity, ratio >30-fold; bin B for high selectivity, ratio >10-fold; bin C for moderate selectivity, ratio ≥1; and bin D for low selectivity, ratio <1. […] (nd=not determined).

For experiment [7], the target named is T6, Ba/F3 cells EML4-ALK wt (variant 1) (Homo sapiens, UniProt Q9UM73).
T6 construct: echinoderm microtubule-associated protein-like 4 (EML4) gene and the ALK tyrosine kinase domain; host or cells: Ba/F3 (RIKEN), retroviral pMSCV-puro; the other entry of the earlier key: EML4 (Q9HC35, Echinoderm microtubule-associated protein-like 4)
T6 sequence (Q9UM73 with tags, fused parts or gaps): as the sequence (Q9UM73 with tags, fused parts or gaps L1196M/G1202R) above, with M635L, R641G counted along it
Briefly: Ba/F3 cell proliferation assay, EML4-ALK wt (variant 1). The experiment is classed as cell-based. To be noted: 72 hours, CellTiter-Glo. The essentials:
as §1

The target of experiment [8] is T7, Ba/F3 cells CD74-ROS1 G2032R (Homo sapiens, UniProt P08922, G2032R).
T7 construct: fusion of the C-terminus of ROS1 with the N-terminus of various partner proteins; host or cells: Ba/F3 (RIKEN), retroviral pMSCV-puro; the other entry of the earlier key: CD74 (P04233, HLA class II histocompatibility antigen gamma chain)
T7 sequence (P08922 1883-2347 G2032R limits assumed): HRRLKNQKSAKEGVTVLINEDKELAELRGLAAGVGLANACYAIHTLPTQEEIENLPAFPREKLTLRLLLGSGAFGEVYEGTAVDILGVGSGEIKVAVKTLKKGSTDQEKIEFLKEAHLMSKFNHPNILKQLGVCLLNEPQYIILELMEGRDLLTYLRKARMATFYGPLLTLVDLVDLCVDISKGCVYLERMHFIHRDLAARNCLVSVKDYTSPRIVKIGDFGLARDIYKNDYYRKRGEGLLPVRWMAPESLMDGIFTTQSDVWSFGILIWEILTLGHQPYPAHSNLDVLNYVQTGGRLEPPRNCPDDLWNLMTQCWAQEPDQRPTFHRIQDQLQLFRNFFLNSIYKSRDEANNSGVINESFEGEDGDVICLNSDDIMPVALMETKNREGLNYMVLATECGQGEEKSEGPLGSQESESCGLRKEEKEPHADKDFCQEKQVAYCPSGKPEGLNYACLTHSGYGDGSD
Briefly: Ba/F3 cell proliferation assay, CD74-ROS1 G2032R. The class given is cell-based. To be noted: 72 hours, CellTiter-Glo. The essentials: (§3)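 IL-3-independent Ba/F3 CD74-ROS1 lines, puromycin-selected monoclones; 1,000 cells/well, plated 1 d before dosing; 3-fold serial dilutions, 72 h; CellTiter-Glo luminescence; IC50 by 4-parameter logistic regression.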

Experiment [9] addresses T8, Ba/F3 cells CD74-ROS1 wild-type (wt) (Homo sapiens, UniProt P08922).
T8 construct: fusion of the C-terminus of ROS1 with the N-terminus of various partner proteins; host or cells: Ba/F3 (RIKEN), retroviral pMSCV-puro; the other entry of the earlier key: CD74 (P04233, HLA class II histocompatibility antigen gamma chain)
Briefly: Ba/F3 cell proliferation assay, CD74-ROS1 wild-type. The experiment is classed as cell-based. To be noted: 72 hours, CellTiter-Glo. The essentials:
as §3

Experiment [10] deals with T9, ALK-wt (Homo sapiens, UniProt Q9UM73).
T9 construct: purchased Carna 08-518
T9 sequence (Q9UM73 1116-1392 limits assumed): as the sequence (Q9UM73 1116-1392 L1196M/G1202R limits assumed) above, with M81L, R87G counted along it
In words: Biochemical kinase assay, ALK-wt kinase domain. To be noted: apparent inhibitory constant, Morrison equation; ATP 2 mM in substrate solution; read-out: ALK-wt Ki^app. The procedure: as §2

Experiment [11] concerns the target T10, ROS1-wt (Homo sapiens, UniProt P08922).
T10 construct: purchased Carna 08-163
Briefly: Biochemical kinase assay, ROS1-wt kinase domain. To be noted: apparent inhibitory constant, Morrison equation; ATP 2 mM in substrate solution; read-out: ROS1-wt Ki^app. The procedure:
as §2, with “Then, a 12.5 μL kinase solution containing ALK-wt (1.5 nM, Carna, 08-518), ALK ALK L1196M/G1202R (3 nM, SignalChem, A19-12NG), ROS1-wt (0.6 nM, Carna, 08-163), ROS1-G2032R (0.5 nM, SignalChem, R14-12BG), or TRKA-wt (1 nM, BPS Bio, 40280) kinase domains in buffer (50 nM HEPES pH 7.5, 0.01% Brij-35, 2% glycerol, 0.4 mg/mL BSA, 0.5 mM EGTA, and 10 mM MgCl2) was added and mixed thoroughly.” left out

T8 sequence (P08922 1883-2347 limits assumed): as the sequence (P08922 1883-2347 G2032R limits assumed) above, with R150G counted along it
T1 sequence (P04629 510-796 limits assumed): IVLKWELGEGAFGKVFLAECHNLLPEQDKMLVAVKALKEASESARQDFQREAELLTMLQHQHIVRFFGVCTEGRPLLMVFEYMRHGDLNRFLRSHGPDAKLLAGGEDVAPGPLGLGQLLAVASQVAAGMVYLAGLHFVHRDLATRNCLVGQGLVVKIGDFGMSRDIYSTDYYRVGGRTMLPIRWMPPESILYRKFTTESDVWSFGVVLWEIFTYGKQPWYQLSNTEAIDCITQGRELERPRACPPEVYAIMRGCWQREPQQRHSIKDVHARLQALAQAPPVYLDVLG
T10 sequence (P08922 1945-2222 limits assumed): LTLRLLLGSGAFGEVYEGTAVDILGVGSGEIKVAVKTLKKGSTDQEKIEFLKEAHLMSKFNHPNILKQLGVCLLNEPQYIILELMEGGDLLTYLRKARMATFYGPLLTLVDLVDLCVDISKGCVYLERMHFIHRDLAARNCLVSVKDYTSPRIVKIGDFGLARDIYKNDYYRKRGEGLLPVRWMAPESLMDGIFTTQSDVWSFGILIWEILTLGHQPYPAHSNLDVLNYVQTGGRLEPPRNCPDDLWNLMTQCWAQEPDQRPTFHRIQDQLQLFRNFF
T5 sequence (P08922 1945-2222 G2032R limits assumed): as the sequence (P08922 1945-2222 limits assumed) above, with G88R counted along it

What is called IC50 is the concentration needed to halve the response being measured. For `C[C@H]1Oc2cc(cnc2N)-c2c(cnn2C2CCC2)Cn2nncc2-c2ccc(F)cc21` [Example 7, (19R)-3-cyclobutyl-16-fluoro-19-methyl-20-oxa-3,4,8,9,10,23-hexaazapentacyclo[19.3.1.0^2,^6.0^8,^12.0^13,^18]pentacosa-1(24),2(6),4,9,11,13,15,17,21(25),22-decaen-22-amine], the half-inhibitory concentration (IC50) in experiment [1] is greater than 500 nM; in experiment [3], 50 to 500 nM; in experiment [7] it was 0.1 to 50 nM; in experiment [8] it was 0.1 to 50 nM; in experiment [9], 0.1 to 50 nM. Moreover, the Ki in [2] was less than 50 nM; in experiment [4], greater than 500 nM; in experiment [5], 50 to 500 nM; in [10], less than 50 nM; in experiment [11] it was less than 50 nM. The TPM3-NTRK1-wt/CD74-ROS1-G2032R selectivity ratio result in experiment [6] was “A (bin A for very high selectivity, ratio >30-fold)”. The TPM3-NTRK1-wt/CD74-ROS1-wt selectivity ratio result in experiment [6] is on record as “A (bin A for very high selectivity, ratio >30-fold)”. Further, the TPM3-NTRK1-wt/EML4-ALK-L1196M-G1202R selectivity ratio result in experiment [6] is listed as “B (bin B for high selectivity, ratio >10-fold)”. In addition, the TPM3-NTRK1-wt/EML4-ALK-wt selectivity ratio entry in experiment [6] is “A (bin A for very high selectivity, ratio >30-fold)”.
On to `CCn1ncc2c1-c1cnc(N)c(c1)O[C@H](C)c1cc(F)ccc1-c1cn(C)nc1C2` [Example 9, (19R)-3-ethyl-16-fluoro-10,19-dimethyl-20-oxa-3,4,9,10,23-pentaazapentacyclo[19.3,1.0^2,^6.0^8,^12.0^13,^18]pentacosa-1(24),2(6),4,8,11,13,15,17,21 (25),22-decaen-22-amine], for which the IC50 was greater than 500 nM in [1]; 0.1 to 50 nM in experiment [3]; 0.1 to 50 nM in [7]; 0.1 to 50 nM in [8]; 0.1 to 50 nM in experiment [9]. Further, the Ki was less than 50 nM in experiment [2]; 50 to 500 nM in experiment [4]; less than 50 nM in [5]; less than 50 nM in [10]; less than 50 nM in [11]. Moreover, in experiment [6], the TPM3-NTRK1-wt/CD74-ROS1-G2032R selectivity ratio entry is recorded as “A (bin A for very high selectivity, ratio >30-fold)”. For the same compound, in experiment [6], the TPM3-NTRK1-wt/CD74-ROS1-wt selectivity ratio result is on record as “A (bin A for very high selectivity, ratio >30-fold)”. Moreover, in experiment [6], the TPM3-NTRK1-wt/EML4-ALK-L1196M-G1202R selectivity ratio entry is listed as “B (bin B for high selectivity, ratio >10-fold)”. Besides, in [6], the TPM3-NTRK1-wt/EML4-ALK-wt selectivity ratio result was “A (bin A for very high selectivity, ratio >30-fold)”.

Source of the values: patent publication US12054498B2, “Heteroaromatic macrocyclic ether chemotherapeutic agents” (Nuvalent, Inc., priority 2020, dated 2024).
